Laboratory results as given in PMC5503199 (Molecular microbiology, 2009).
Like-named read-outs stand apart in the source and are kept apart here.

How the values were obtained:
[1] = system: Cbc core transporter CbcWV (PAO1) with chromosomally encoded SBPs; format: cell-based, Pseudomonas aeruginosa; details: pNcbcWV, substrate 10 μM
ChoXWV = biological target: T1, ChoXWV (Sinorhizobium meliloti, UniProt Q92N37); assay: Competitive uptake, MKH13 expressing choXWV; format: cell-based; details: pNchoXWV, SBP ChoX, [^14C]choline 10 μM, competitor 1 mM
T1 sequence (Q92N37 28-318): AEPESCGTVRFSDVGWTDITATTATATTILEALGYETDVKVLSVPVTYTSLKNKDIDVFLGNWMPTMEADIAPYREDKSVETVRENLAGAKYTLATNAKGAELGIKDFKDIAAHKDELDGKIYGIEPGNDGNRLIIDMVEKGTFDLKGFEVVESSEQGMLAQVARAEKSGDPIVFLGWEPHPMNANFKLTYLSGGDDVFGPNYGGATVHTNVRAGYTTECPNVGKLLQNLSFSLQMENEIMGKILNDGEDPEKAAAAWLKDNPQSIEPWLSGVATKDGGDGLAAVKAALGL
T1 sequence (Q92N36 1-281 partner): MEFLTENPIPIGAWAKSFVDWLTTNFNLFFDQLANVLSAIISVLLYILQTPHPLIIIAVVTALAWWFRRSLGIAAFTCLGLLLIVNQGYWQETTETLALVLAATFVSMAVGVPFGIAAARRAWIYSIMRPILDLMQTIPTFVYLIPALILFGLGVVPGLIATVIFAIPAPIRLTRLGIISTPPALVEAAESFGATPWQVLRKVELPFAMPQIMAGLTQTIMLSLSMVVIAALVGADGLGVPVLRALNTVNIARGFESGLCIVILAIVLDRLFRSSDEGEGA
T1 sequence (Q92N35 1-349 partner): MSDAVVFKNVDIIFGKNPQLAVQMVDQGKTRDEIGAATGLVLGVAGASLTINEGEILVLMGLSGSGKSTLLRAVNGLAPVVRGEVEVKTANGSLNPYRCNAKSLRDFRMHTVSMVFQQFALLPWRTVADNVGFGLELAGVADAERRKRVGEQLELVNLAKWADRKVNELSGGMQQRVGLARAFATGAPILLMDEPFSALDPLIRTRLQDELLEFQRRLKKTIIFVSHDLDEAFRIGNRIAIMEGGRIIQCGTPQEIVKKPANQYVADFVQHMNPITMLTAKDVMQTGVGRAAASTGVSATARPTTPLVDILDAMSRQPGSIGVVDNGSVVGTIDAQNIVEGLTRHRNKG

CbcWV with CaiXB728a = format: cell-based, Pseudomonas syringae pv. syringae; details: MKH13; pNcbcWV, pT-B2916; SBP CaiXB728a; substrate 10 μM; single replication
CbcWV with BetXPAO1 = format: cell-based, Pseudomonas aeruginosa; details: MKH13; pNcbcWV, pT-PA3236; SBP BetXPAO1; substrate 10 μM; single replication
CbcWV with CaiXPAO1 = format: cell-based, Pseudomonas aeruginosa; details: MKH13; pNcbcWV, pT-PA5388; SBP CaiXPAO1; substrate 10 μM; single replication
[2] = system: cbcXWV from PAO1 in QAC transporter-deficient BT strain; format: cell-based, Pseudomonas aeruginosa; details: BT(pCbcPAO1), unlabelled competitor 0.5 mM, 10 min
CbcWV with BetXDC3000 = format: cell-based, Pseudomonas syringae pv. tomato; details: MKH13; pNcbcWV, pT-D3758; SBP BetXDC3000; substrate 10 μM; single replication
CbcWV with BetXB728a = format: cell-based, Pseudomonas syringae pv. syringae; details: MKH13; pNcbcWV, pT-B3758; SBP BetXB728a; substrate 10 μM; single replication
[3] = system: cbcXWV from DC3000 in QAC transporter-deficient BT strain; format: cell-based, Pseudomonas syringae pv. tomato; details: BT(pCbcDC3000), unlabelled competitor 0.5 mM, 10 min
[4] = system: complete Cbc transporter CbcXWV (PAO1); format: cell-based, Pseudomonas aeruginosa; details: pNcbcXWV, substrate 10 μM
[5] = system: CbcXWV from P. aeruginosa PAO1; format: cell-based, Pseudomonas aeruginosa; details: MKH13, pCbcPAO1; radiolabelled substrate 1 mM; mean (SE), n = 10
CbcXWV from B728a = format: cell-based, Pseudomonas syringae pv. syringae; details: Acella, pET-cbcB728a; 1 mM IPTG; substrate 1 mM; single colony
CbcXWV from DC3000 = format: cell-based, Pseudomonas syringae pv. tomato; details: Acella, pET-cbcDC3000; 1 mM IPTG; substrate 1 mM; mean (SE), n = 10
[6] = system: P. syringae BT-derived mutants; format: cell-based, Pseudomonas syringae pv. syringae; details: pN, substrate 10 μM
[7] = system: cbcXWV from B728a in QAC transporter-deficient BT strain; format: cell-based, Pseudomonas syringae pv. syringae; details: BT(pCbcB728a), unlabelled competitor 0.5 mM, 10 min
CbcX with CbcWV = CbcX with CbcWV (Pseudomonas aeruginosa, UniProt Q9HTI6); assay: Competitive uptake, MKH13 expressing cbcXWV; format: cell-based; details: MKH13, pNcbcXWV, SBP CbcX, competitor 1 mM
CaiX with CbcWV = format: cell-based, Pseudomonas aeruginosa; details: MKH13; pNcbcWV, pT-PA5388; SBP CaiX; [^14C]carnitine 10 μM; competitor 1 mM
[8] = host BT0028Ko, mean (SE), n = 2
[9] = host BT2916Ko, single replication
[10] = host BT3758Ko, mean (SE), n = 3

With `C[N+](C)(C)C[C@H](O)CC(=O)[O-]` [Carnitine, L-carnitine] the Total uptake [1, 8] was 16.3 (0.91) nmol (mg protein)^−1, the Total uptake [1, 9] was 0.3 nmol (mg protein)^−1 and the Total uptake [1, 10] was 15.1 (0.16) nmol (mg protein)^−1. For the same compound, the “% inhibition of uptake of substrate by unlabelled competitor” value (“% inhibition of uptake of substrate” below) (ChoXWV) was 41%, the Total uptake (CbcWV with CaiXB728a) was 3.7 nmol (mg protein)^−1 and the Total uptake (CbcWV with BetXPAO1) was 0 nmol (mg protein)^−1. For the same compound, the Total uptake (CbcWV with CaiXPAO1) was 3.8 nmol (mg protein)^−1, the “% inhibition of uptake of [^14C]substrate” value ([2]; [^14C]betaine 5 μM) was 2% and the “% inhibition of uptake of [^14C]substrate” value ([2]; [^14C]carnitine 5 μM) was 94%. The “% inhibition of uptake of [^14C]substrate” value ([2]; [^14C]choline 5 μM) was 1%, the Total uptake (CbcWV with BetXDC3000) was 0 nmol (mg protein)^−1 and the Total uptake (CbcWV with BetXB728a) was 0 nmol (mg protein)^−1. For the same compound, the “% inhibition of uptake of [^14C]substrate” value ([3]; [^14C]betaine 5 μM) was −2%, the “% inhibition of uptake of [^14C]substrate” value ([3]; [^14C]carnitine 5 μM) was 94% and the “% inhibition of uptake of [^14C]substrate” value ([3]; [^14C]choline 5 μM) was −6%. The Total uptake [4, 8] was 7.0 (0.4) nmol (mg protein)^−1, the Total uptake [4, 9] was 0.5 nmol (mg protein)^−1 and the Total uptake [4, 10] was 13.0 (0.3) nmol (mg protein)^−1. For the same compound, the Total uptake [5] was 0.8 (0.4) nmol (mg protein)^−1, the Total uptake (CbcXWV from B728a) was 0 nmol (mg protein)^−1 and the Total uptake (CbcXWV from DC3000) was 0.59 (0.82) nmol (mg protein)^−1. For the same compound, the Total uptake ([6]; host BT0028Ko) was 0.0 nmol (mg protein)^−1, the Total uptake [6, 9] was 0.1 nmol (mg protein)^−1 and the Total uptake ([6]; host BT3758Ko) was 0.0 nmol (mg protein)^−1. For the same compound, the “% inhibition of uptake of [^14C]substrate” value ([7]; [^14C]betaine 5 μM) was 5%, the “% inhibition of uptake of [^14C]substrate” value ([7]; [^14C]carnitine 5 μM) was 93% and the “% inhibition of uptake of [^14C]substrate” value ([7]; [^14C]choline 5 μM) was 5%. The “% inhibition of uptake of substrate” value (CbcX with CbcWV; [^14C]betaine 10 μM) was 3%, the “% inhibition of uptake of substrate” value (CbcX with CbcWV; [^14C]choline 10 μM) was 6% and the “% inhibition of uptake of substrate” value (CaiX with CbcWV) was 91%.
